Results on 30 molecules are retold here after ChEMBL document CHEMBL1681645, “Pyrrolo[1,2-f]triazines as JAK2 inhibitors: achieving potency and selectivity for JAK2 over JAK3” (Bioorg Med Chem Lett, 2011).

In assay [1] the target is Tyrosine-protein kinase JAK2 (Homo sapiens, UniProt O60674). The experiment in a line: Inhibition of JAK2 after 60 mins.
Assay [2] in a line: Antiproliferative activity against human SET2 cells assessed as inhibition of [3H]thymidine incorporation after 72 hrs. The class given is functional, cell-based. Conditions: SET-2.
Assay [3] in a line: Selectivity ratio of IC50 for JAK3 over IC50 for JAK2.
Assay [4] in a line: Selectivity ratio of IC50 for JAK1 over IC50 for JAK2.
Assay [5] addresses T1, Tyrosine-protein kinase JAK3 (Homo sapiens, UniProt P52333).
T1 sequence (P52333 whole entry): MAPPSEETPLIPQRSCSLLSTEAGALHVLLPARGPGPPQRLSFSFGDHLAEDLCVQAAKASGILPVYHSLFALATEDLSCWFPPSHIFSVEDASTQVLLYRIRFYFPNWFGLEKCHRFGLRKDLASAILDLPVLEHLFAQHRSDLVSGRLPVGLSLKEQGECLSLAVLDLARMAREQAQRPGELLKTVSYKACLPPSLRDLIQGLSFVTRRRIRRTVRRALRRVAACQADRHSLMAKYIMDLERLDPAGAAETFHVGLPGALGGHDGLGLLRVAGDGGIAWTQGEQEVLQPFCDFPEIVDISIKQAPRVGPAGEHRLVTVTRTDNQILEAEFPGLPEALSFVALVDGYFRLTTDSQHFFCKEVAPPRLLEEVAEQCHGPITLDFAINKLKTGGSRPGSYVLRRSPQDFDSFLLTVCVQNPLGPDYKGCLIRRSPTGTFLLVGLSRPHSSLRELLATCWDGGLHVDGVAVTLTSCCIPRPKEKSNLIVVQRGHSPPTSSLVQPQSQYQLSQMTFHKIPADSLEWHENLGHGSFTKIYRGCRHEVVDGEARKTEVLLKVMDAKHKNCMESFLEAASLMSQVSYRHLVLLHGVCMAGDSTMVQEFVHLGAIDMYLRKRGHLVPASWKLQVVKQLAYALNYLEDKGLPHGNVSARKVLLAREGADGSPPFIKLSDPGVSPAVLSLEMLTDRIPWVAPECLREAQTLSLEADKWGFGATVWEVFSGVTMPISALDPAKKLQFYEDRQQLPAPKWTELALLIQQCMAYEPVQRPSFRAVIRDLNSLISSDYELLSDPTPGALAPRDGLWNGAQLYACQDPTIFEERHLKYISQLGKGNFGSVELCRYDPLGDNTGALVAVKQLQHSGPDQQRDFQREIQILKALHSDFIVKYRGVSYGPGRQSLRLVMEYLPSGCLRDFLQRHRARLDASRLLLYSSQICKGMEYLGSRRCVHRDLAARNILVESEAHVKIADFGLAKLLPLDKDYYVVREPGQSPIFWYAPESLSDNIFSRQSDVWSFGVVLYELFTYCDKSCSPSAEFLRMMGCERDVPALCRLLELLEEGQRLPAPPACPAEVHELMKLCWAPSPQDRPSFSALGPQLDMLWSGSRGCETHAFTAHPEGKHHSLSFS
The assay can be described thus: Inhibition of JAK3 after 60 mins.

Sequence of Tyrosine-protein kinase JAK2 (O60674 whole entry): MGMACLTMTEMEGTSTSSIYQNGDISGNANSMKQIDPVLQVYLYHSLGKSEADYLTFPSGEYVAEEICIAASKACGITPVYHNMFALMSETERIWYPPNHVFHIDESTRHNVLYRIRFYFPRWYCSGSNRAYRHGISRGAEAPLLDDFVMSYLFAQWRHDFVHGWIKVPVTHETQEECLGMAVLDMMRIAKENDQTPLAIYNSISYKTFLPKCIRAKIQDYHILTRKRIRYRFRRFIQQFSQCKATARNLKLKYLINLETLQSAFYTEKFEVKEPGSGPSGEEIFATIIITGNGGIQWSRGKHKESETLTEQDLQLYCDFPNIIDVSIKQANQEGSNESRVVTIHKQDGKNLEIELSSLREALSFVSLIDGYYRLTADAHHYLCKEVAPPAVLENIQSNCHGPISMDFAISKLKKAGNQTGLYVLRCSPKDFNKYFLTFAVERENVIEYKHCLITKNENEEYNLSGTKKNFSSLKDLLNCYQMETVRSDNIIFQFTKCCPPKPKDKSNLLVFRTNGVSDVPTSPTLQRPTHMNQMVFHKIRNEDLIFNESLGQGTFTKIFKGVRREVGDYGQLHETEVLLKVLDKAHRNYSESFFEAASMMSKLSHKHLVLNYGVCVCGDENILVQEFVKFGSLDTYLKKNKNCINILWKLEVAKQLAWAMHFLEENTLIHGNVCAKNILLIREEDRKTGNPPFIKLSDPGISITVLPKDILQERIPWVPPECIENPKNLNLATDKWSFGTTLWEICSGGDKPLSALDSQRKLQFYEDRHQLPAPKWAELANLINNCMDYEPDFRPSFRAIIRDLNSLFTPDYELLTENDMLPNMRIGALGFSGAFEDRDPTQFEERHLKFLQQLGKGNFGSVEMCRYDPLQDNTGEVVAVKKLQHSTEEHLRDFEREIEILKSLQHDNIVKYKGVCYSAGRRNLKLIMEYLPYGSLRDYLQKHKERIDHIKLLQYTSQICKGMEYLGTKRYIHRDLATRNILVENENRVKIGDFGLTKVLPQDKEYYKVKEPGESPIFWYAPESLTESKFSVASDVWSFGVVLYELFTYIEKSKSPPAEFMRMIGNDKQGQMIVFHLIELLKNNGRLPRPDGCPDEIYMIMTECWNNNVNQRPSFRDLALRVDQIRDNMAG

Take `Cc1cc(Nc2nc(N3CCN(C(=O)Cc4ccccc4C)CC3)nn3cccc23)n[nH]1`: the concentration for half-maximal inhibition (IC50) in assay [1] was 5.3 nM; in assay [2], 120 nM.

As to `Cc1ccc(C(=O)N2CCN(c3nc(Nc4cc(C)[nH]n4)c4cccn4n3)CC2)cc1`, the results for the IC50 in assay [1] and in assay [2] were 4.5 nM and 59 nM, respectively.

With `Cc1cc(Nc2nc(N3CCN(C(=O)N(C)C)CC3)nn3cccc23)n[nH]1`, the Ratio IC50 was 11 in assay [3] and 5 in assay [4].

Consider `Cc1nnc(Nc2nc(N3CCN(C(=O)Cc4ccccc4)CC3)nn3cccc23)s1`, for which the Ratio IC50 in assay [3] turned out to be 1.3. For the same molecule, the 50% inhibitory concentration (IC50) was determined as 14000 nM in assay [1], 690 nM in assay [2] and 18000 nM in assay [5].

Regarding `COc1ccccc1C(=O)N1CCN(c2nc(Nc3cc(C)[nH]n3)c3cccn3n2)CC1`, the 50% inhibitory concentration (IC50) was found to be 3.5 nM in assay [1] and 90 nM in assay [2].

In the case of `Cc1cc(Nc2nc(N3CCN(C(=O)c4ccccc4S(C)(=O)=O)CC3)nn3cccc23)n[nH]1`, the IC50 in assay [1] was 1.1 nM; in assay [2], 190 nM.

Regarding `Cc1cc(Nc2nc(N3CCN(C(=O)Cc4ccccc4F)CC3)nn3cccc23)n[nH]1`, the values for the IC50 in assay [1] and in assay [2] were 4.6 nM and 170 nM, respectively.

For the molecule `COc1ccc(CC(=O)N2CCN(c3nc(Nc4cc(C)[nH]n4)c4cccn4n3)CC2)cc1`, the IC50 was determined as 1.2 nM in assay [1] and 630 nM in assay [2].

Consider `Cc1cc(Nc2nc(N3CCN(C(=O)c4ccc(C#N)cc4)CC3)nn3cccc23)n[nH]1`, for which the IC50 in assay [1] was 4.8 nM; in assay [2], 6.2 nM.

For `Cc1cc(Nc2nc(N3CCN(C(=O)CCc4ccccc4)CC3)nn3cccc23)n[nH]1`, the IC50 was 2 nM in assay [1] and 76 nM in assay [2].

As to `Cc1cc(Nc2nc(N3CCN(C(=O)Cc4c(F)cc(Cl)cc4F)CC3)nn3cccc23)n[nH]1`, the Ratio IC50 was found to be 67 in assay [3] and 3.8 in assay [4]. The half-maximal inhibitory concentration (IC50) in assay [1] amounted to 1 nM; in assay [2], 80 nM.

`O=C(Cc1ccccc1)N1CCN(c2nc(Nc3ccccn3)c3cccn3n2)CC1`: the Ratio IC50 stood at 41 in assay [3] and 11 in assay [4]. In assay [1], this molecule had a 50% inhibitory concentration (IC50) of 190 nM.

Consider `CC(C)n1cnc(Nc2nc(N3CCN(C(=O)Cc4ccccc4)CC3)nn3cccc23)c1`, for which the half-maximal inhibitory concentration (IC50) in assay [1] was found to be 110 nM; in assay [2], 670 nM.

With `Cc1cc(Nc2nc(N3CCN(C(=O)c4ccccc4C)CC3)nn3cccc23)n[nH]1`, the 50% inhibitory concentration (IC50) in assay [1] is 3 nM; in assay [2] it was 160 nM.

As to `O=C(NC1CC1)c1cc(Nc2nc(N3CCN(C(=O)Cc4ccccc4)CC3)nn3cccc23)n[nH]1`, the IC50 in assay [1] came out at 2700 nM; in assay [2], 1400 nM.

Consider `CCC(=O)N1CCN(c2nc(Nc3cc(C)[nH]n3)c3cccn3n2)CC1`, for which the Ratio IC50 in assay [3] stood at 5. The midpoint of inhibition in assay [1], the IC50, lay at 22 nM.

In the case of `Cc1cc(Nc2nc(N3CCN(C(=O)c4ccccc4Cl)CC3)nn3cccc23)n[nH]1`, the IC50 was 7.3 nM in assay [1] and 71 nM in assay [2].

As to `Cc1cc(Nc2nc(N3CCN(C(=O)Cc4ccc(Cl)cc4)CC3)nn3cccc23)n[nH]1`, the IC50 in assay [1] is 0.6 nM; in assay [2] it was 590 nM.

Regarding `O=C(Cc1ccccc1)N1CCN(c2nc(Nc3nccs3)c3cccn3n2)CC1`, the Ratio IC50 in assay [3] stood at 37; in assay [4] it was 2.6. Moreover, the results for the IC50 in assay [1] and in assay [2] were 59 nM and 1200 nM, respectively.

Turning to `Cc1cc(Nc2nc(N3CCN(C(=O)c4ccccc4Br)CC3)nn3cccc23)n[nH]1`, the 50% inhibitory concentration (IC50) in assay [1] worked out at 2.1 nM; in assay [2], 180 nM.

Regarding `Cc1ccc(CC(=O)N2CCN(c3nc(Nc4cc(C)[nH]n4)c4cccn4n3)CC2)cc1`, the values for the half-maximal inhibitory concentration (IC50) in assay [1] and in assay [2] were 1.1 nM and 310 nM, respectively.

Take `COc1cc(F)c(CC(=O)N2CCN(c3nc(Nc4cc(C)n[nH]4)c4cccn4n3)CC2)c(F)c1`: the IC50 in assay [2] came to 110 nM.

For the molecule `Cc1cc(Nc2nc(N3CCN(C(=O)Cc4ccc(F)cc4F)CC3)nn3cccc23)n[nH]1`, the figures for the concentration for half-maximal inhibition (IC50) in assay [1] and in assay [2] were 2.4 nM and 54 nM, respectively.

As to `Cc1cc(Nc2nc(N3CCN(C(=O)c4ccccc4C#N)CC3)nn3cccc23)n[nH]1`, the half-maximal inhibitory concentration (IC50) in assay [1] was found to be 6 nM; in assay [2], 140 nM.

Regarding `Cc1cc(Nc2nc(N3CCN(C(=O)c4ccccc4)CC3)nn3cccc23)n[nH]1`, the IC50 in assay [1] was 2.2 nM; in assay [2], 62 nM.

As for `Cc1cc(Nc2nc(N3CCN(C(=O)Cc4ccccc4)CC3)nn3cccc23)n[nH]1`, the results for the half-maximal inhibitory concentration (IC50) in assay [1] and in assay [2] were 2.8 nM and 370 nM, respectively.

`CC1(c2cc(Nc3nc(N4CCN(C(=O)Cc5ccccc5)CC4)nn4cccc34)n[nH]2)CC1`: the IC50 in assay [1] was 22 nM; in assay [2] it was 980 nM.

For `Cc1cc(Nc2nc(N3CCN(C(=O)N(C)C)CC3)nn3cccc23)[nH]n1`, the half-maximal inhibitory concentration (IC50) in assay [1] stood at 9.3 nM.

As to `Cc1cc(Nc2nc(N3CCNCC3)nn3cccc23)n[nH]1`, the Ratio IC50 in assay [3] came out at 15; in assay [4], 16.

Regarding `Cc1cc(Nc2nc(N3CCN(C(=O)Cc4ccc(F)cc4)CC3)nn3cccc23)n[nH]1`, the Ratio IC50 amounted to 25 in assay [3] and 6.5 in assay [4]. Moreover, the concentration for half-maximal inhibition (IC50) came to 0.9 nM in assay [1] and 54 nM in assay [2].
